Experiments:
Type in all cases: functional
A549 [1] = experiment: Synergistic cytotoxicity against human A549 cells expressing KRAS mutant assessed as combination index at ED 50 measured after 72 hrs in presence of MEK inhibitor GSK1120212 by Cell-titer Glo reagent assay
NCI-H1792 [2] = experiment: Synergistic cytotoxicity against human NCI-H1792 cells expressing KRAS mutant assessed as combination index at ED75 measured after 72 hrs in presence of MEK inhibitor GSK1120212 by Cell-titer Glo reagent assay
NCI-H1563 = experiment: Synergistic cytotoxicity against human NCI-H1563 cells assessed as combination index at ED75 measured after 72 hrs in presence of MEK inhibitor GSK1120212 by Cell-titer Glo reagent assay
CAPAN-1 = experiment: Synergistic cytotoxicity against human CAPAN-1 cells expressing KRAS mutant assessed as combination index at ED 50 measured after 72 hrs in presence of MEK inhibitor GSK1120212 by Cell-titer Glo reagent assay
HPAF-II = experiment: Synergistic cytotoxicity against human HPAF-II cells expressing KRAS mutant assessed as combination index at ED75 measured after 72 hrs in presence of MEK inhibitor GSK1120212 by Cell-titer Glo reagent assay
Calu-6 [3] = experiment: Synergistic cytotoxicity against human Calu-6 cells expressing KRAS mutant assessed as combination index at ED75 measured after 72 hrs in presence of MEK inhibitor GSK1120212 by Cell-titer Glo reagent assay
SK-N-FI [4] = experiment: Synergistic cytotoxicity against human SK-N-FI cells assessed as combination index at ED 75 measured after 72 hrs in presence of concurrent treatment of […] inhibitor CI-1040 by Cell-titer Glo reagent assay
NB-1691 [5] = experiment: Synergistic cytotoxicity against human NB-1691 cells assessed as combination index at ED 75 measured after 72 hrs in presence of SN-38 by Cell-titer Glo reagent assay
SW48 [6] = experiment: Synergistic cytotoxicity against human SW48 cells assessed as combination index at ED75 measured after 72 hrs in presence of MEK inhibitor GSK1120212 by Cell-titer Glo reagent assay
NCI-H1792 [7] = experiment: Synergistic cytotoxicity against human NCI-H1792 cells expressing KRAS mutant assessed as combination index at ED 50 measured after 72 hrs in presence of MEK inhibitor GSK1120212 by Cell-titer Glo reagent assay
NCI-H23 [8] = experiment: Synergistic cytotoxicity against human NCI-H23 cells assessed as combination index at ED75 measured after 72 hrs in presence of MEK inhibitor GSK1120212 by Cell-titer Glo reagent assay
NB-1691 [9] = experiment: Synergistic cytotoxicity against human NB-1691 cells assessed as combination index at ED 75 measured after 72 hrs in presence of concurrent treatment of […] inhibitor CI-1040 by Cell-titer Glo reagent assay
SW900 = experiment: Synergistic cytotoxicity against human SW900 cells expressing KRAS mutant assessed as combination index at ED75 measured after 72 hrs in presence of MEK inhibitor GSK1120212 by Cell-titer Glo reagent assay
NCI-H23 [10] = experiment: Synergistic cytotoxicity against human NCI-H23 cells assessed as combination index at ED 50 measured after 72 hrs in presence of MEK inhibitor GSK1120212 by Cell-titer Glo reagent assay
A549 [11] = experiment: Synergistic cytotoxicity against human A549 cells expressing KRAS mutant assessed as combination index at ED75 measured after 72 hrs in presence of MEK inhibitor GSK1120212 by Cell-titer Glo reagent assay
YAPC [12] = experiment: Synergistic cytotoxicity against human […] cells expressing KRAS mutant assessed as combination index at ED 50 measured after 72 hrs in presence of MEK inhibitor GSK1120212 by Cell-titer Glo reagent assay
SK-N-FI [13] = experiment: Synergistic cytotoxicity against human SK-N-FI cells assessed as combination index at ED 50 measured after 72 hrs in presence of temozolomide by Cell-titer Glo reagent assay
HCT-116 = experiment: Synergistic cytotoxicity against human HCT-116 cells expressing KRAS mutant assessed as combination index at ED75 measured after 72 hrs in presence of MEK inhibitor GSK1120212 by Cell-titer Glo reagent assay
ASPC1 = experiment: Synergistic cytotoxicity against human ASPC1 cells expressing KRAS mutant assessed as combination index at ED75 measured after 72 hrs in presence of MEK inhibitor GSK1120212 by Cell-titer Glo reagent assay
NB-1691 [14] = experiment: Synergistic cytotoxicity against human NB-1691 cells assessed as combination index at ED 50 measured after 72 hrs in presence of temozolomide by Cell-titer Glo reagent assay
SW1990 = experiment: Synergistic cytotoxicity against human SW1990 cells expressing KRAS mutant assessed as combination index at ED75 measured after 72 hrs in presence of MEK inhibitor GSK1120212 by Cell-titer Glo reagent assay
Calu-6 [15] = experiment: Synergistic cytotoxicity against human Calu-6 cells expressing KRAS mutant assessed as combination index at ED 50 measured after 72 hrs in presence of MEK inhibitor GSK1120212 by Cell-titer Glo reagent assay
SW48 [16] = experiment: Synergistic cytotoxicity against human SW48 cells assessed as combination index at ED 50 measured after 72 hrs in presence of MEK inhibitor GSK1120212 by Cell-titer Glo reagent assay
SW-620 = experiment: Synergistic cytotoxicity against human SW620 cells expressing KRAS mutant assessed as combination index at ED75 measured after 72 hrs in presence of MEK inhibitor GSK1120212 by Cell-titer Glo reagent assay
YAPC [17] = experiment: Synergistic cytotoxicity against human […] cells expressing KRAS mutant assessed as combination index at ED75 measured after 72 hrs in presence of MEK inhibitor GSK1120212 by Cell-titer Glo reagent assay
NCI-H2122 = experiment: Synergistic cytotoxicity against human NCI-H2122 cells expressing KRAS mutant assessed as combination index at ED75 measured after 72 hrs in presence of MEK inhibitor GSK1120212 by Cell-titer Glo reagent assay
NCI-H520 = experiment: Synergistic cytotoxicity against human NCI-H520 cells assessed as combination index at ED75 measured after 72 hrs in presence of MEK inhibitor GSK1120212 by Cell-titer Glo reagent assay
MIA PaCa-2 = experiment: Synergistic cytotoxicity against human MIA PaCa-2 cells expressing KRAS mutant assessed as combination index at ED75 measured after 72 hrs in presence of MEK inhibitor GSK1120212 by Cell-titer Glo reagent assay
SK-N-FI [18] = experiment: Synergistic cytotoxicity against human SK-N-FI cells assessed as combination index at ED 75 measured after 72 hrs in presence of SN-38 by Cell-titer Glo reagent assay
NCI-H2030 = experiment: Synergistic cytotoxicity against human NCI-H2030 cells expressing KRAS mutant assessed as combination index at ED75 measured after 72 hrs in presence of MEK inhibitor GSK1120212 by Cell-titer Glo reagent assay

## CC(C)Oc1ccc(C(=O)N[C@H](CNC(=O)CN(C)C)Cc2ccc(-c3cn4cccc([C@H](C)O)c4n3)cc2)cc1Cl [GSK-923295A]
A549 [1]
  CI: 0.614
NCI-H1792 [2]
  CI: 0.482
NCI-H1563
  CI: 0.243
CAPAN-1
  CI: 0.053
HPAF-II
  CI: 0.473
Calu-6 [3]
  CI: 0.533
SK-N-FI [4]
  CI: 0.379
NB-1691 [5]
  CI: 0.886
SW48 [6]
  CI: 0.091
NCI-H1792 [7]
  CI: 0.484
NCI-H23 [8]
  CI: 0.234
NB-1691 [9]
  CI: 0.308
SW900
  CI: 0.653
NCI-H23 [10]
  CI: 0.259
A549 [11]
  CI: 0.402
YAPC [12]
  CI: 0.659
SK-N-FI [13]
  CI: 0.837
HCT-116
  CI: 0.384
ASPC1
  CI: 0.323
NB-1691 [14]
  CI: 0.405
SW1990
  CI: 0.103
Calu-6 [15]
  CI: 0.556
SW48 [16]
  CI: 0.36
SW-620
  CI: 0.289
YAPC [17]
  CI: 1.31
NCI-H2122
  CI: 0.796
NCI-H520
  CI: 0.715
MIA PaCa-2
  CI: 0.311
SK-N-FI [18]
  CI: 1.754
NCI-H2030
  CI: 2.329

From ChEMBL document CHEMBL5647688, “Mitogen-activated protein kinase (MEK/ERK) inhibition sensitizes cancer cells to centromere-associated protein E inhibition” (Int J Cancer, 2013)
